Assay results published in patent US20250368649A1, “TETRAHYDROPYRIDOPYRIMIDINE PAN-KRAS INHIBITORS” (Mirati Therapeutics, Inc., priority 2022, published 2025).

Columns and labels:
[1] = system: ASPC1 cells; assay: Inhibition of KRas-mediated phosphorylation of ERK (Cisbio HTRF pERK), ASPC1 cells; assay type: cell-based; settings: Homo sapiens, AsPC-1 cells; for IC50: ASPC1, 3 h, 3 hr compound incubation, Cisbio pERK HTRF; for inhibition at 0.1 µM: ASPC1, single point at 100 nM, 3 hrs compound incubation
[2] = system: H727 cells; assay: Inhibition of KRas-mediated phosphorylation of ERK (Cisbio HTRF pERK), H727 cells; assay type: cell-based; settings: Homo sapiens; for IC50: NCI-H727, 3 h, 3 hr compound incubation, Cisbio pERK HTRF; for inhibition at 0.1 µM: NCI-H727, single point at 100 nM, 3 hrs compound incubation
[3] = molecular target: KRas G12D (Homo sapiens, UniProt P01116, G12D); assay: biochemical; settings: Binding to KRas (IC50 nM) G12D, TR-FRET displacement, KRas G12D
KRas G12D, sequence (P01116 1-169 isoform P01116-2 G12D): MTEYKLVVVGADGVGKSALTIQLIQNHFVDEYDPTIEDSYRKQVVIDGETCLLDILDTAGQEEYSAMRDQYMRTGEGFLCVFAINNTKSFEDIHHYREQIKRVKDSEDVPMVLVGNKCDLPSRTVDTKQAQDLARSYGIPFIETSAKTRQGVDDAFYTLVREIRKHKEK

[4] = molecular target: KRas G12A (Homo sapiens, UniProt P01116, G12A); assay type: binding; settings: TR-FRET displacement, read-out: Binding to KRas (IC50 nM) G12A
KRas G12A, sequence (P01116 1-169 isoform P01116-2 G12A): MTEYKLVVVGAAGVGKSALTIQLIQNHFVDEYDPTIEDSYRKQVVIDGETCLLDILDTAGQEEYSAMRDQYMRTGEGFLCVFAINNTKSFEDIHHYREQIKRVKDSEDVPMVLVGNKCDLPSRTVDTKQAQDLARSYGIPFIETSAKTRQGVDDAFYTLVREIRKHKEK

[5] = molecular target: KRas G12S (Homo sapiens, UniProt P01116, G12S); assay type: binding; settings: TR-FRET displacement, read-out: Binding to KRas (IC50 nM) G12S
KRas G12S, sequence (P01116 1-169 isoform P01116-2 G12S): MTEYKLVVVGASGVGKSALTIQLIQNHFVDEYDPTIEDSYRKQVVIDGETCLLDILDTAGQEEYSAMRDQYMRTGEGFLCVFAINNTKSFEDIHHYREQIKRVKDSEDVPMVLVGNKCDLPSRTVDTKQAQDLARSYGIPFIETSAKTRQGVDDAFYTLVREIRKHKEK

[6] = molecular target: KRas G12C (Homo sapiens, UniProt P01116, G12C); assay type: binding; settings: TR-FRET displacement, read-out: Binding to KRas (IC50 nM) G12C
KRas G12C, sequence (P01116 1-169 isoform P01116-2 G12C): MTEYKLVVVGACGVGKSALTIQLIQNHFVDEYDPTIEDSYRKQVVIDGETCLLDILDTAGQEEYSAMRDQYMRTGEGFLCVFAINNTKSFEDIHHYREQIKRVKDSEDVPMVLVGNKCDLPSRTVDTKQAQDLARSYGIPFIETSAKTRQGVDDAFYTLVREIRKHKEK

[7] = molecular target: KRas WT (Homo sapiens, UniProt P01116); assay: KRas binding assay (TR-FRET displacement), KRas WT; settings: TR-FRET displacement
KRas WT, sequence (P01116 1-169 isoform P01116-2): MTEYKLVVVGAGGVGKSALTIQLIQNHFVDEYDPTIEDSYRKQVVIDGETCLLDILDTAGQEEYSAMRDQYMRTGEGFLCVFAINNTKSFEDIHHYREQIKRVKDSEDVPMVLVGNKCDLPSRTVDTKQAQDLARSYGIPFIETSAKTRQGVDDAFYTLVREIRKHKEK

[8] = molecular target: KRas G13D (Homo sapiens, UniProt P01116, G13D); assay type: binding; settings: TR-FRET displacement, read-out: Binding to KRas (IC50 nM) G13D
KRas G13D, sequence (P01116 1-169 isoform P01116-2 G13D): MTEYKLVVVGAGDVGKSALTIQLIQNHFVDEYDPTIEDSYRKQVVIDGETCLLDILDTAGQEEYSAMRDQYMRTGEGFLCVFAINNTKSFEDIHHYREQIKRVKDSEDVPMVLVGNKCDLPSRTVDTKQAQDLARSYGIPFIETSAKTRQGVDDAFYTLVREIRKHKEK

[9] = molecular target: KRas G12R (Homo sapiens, UniProt P01116, G12R); assay: biochemical; settings: Binding to KRas (IC50 nM) G12R, TR-FRET displacement, KRas G12R
KRas G12R, sequence (P01116 1-169 isoform P01116-2 G12R): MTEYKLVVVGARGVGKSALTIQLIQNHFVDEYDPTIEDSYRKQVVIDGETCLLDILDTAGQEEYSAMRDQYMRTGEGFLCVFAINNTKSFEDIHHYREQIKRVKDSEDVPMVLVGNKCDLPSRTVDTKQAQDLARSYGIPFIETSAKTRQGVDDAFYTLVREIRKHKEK

[10] = molecular target: KRas Q61H (Homo sapiens, UniProt P01116, Q61H); assay: KRas binding assay (TR-FRET displacement), KRas Q61H; settings: TR-FRET displacement
KRas Q61H, sequence (P01116 1-169 isoform P01116-2 Q61H): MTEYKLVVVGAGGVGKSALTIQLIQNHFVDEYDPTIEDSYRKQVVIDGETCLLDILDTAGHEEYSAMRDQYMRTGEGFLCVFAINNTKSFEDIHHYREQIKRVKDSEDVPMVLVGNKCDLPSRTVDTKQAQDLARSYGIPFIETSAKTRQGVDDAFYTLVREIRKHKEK

[11] = molecular target: KRas G12V (Homo sapiens, UniProt P01116, G12V); assay: biochemical; settings: Binding to KRas (IC50 nM) G12V, TR-FRET displacement, KRas G12V
KRas G12V, sequence (P01116 1-169 isoform P01116-2 G12V): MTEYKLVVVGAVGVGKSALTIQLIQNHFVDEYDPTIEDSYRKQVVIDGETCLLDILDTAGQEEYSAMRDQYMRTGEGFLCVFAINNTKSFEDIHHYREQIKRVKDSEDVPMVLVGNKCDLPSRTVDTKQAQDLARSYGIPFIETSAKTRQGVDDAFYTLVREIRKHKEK

Compound | IC50 [1] | IC50 [2] | IC50 [3] | IC50 [4] | IC50 [5] | IC50 [6] | IC50 [7] | IC50 [8] | IC50 [9] | IC50 [10] | IC50 [11] | inhibition at 0.1 µM [1] | inhibition at 0.1 µM [2]
Cc1cc2[nH]ncc2c(N2CCc3c(nc(OCC45CCCN4CCC5)nc3N3CCCC4(CC(O)C4)C3)C2)c1C (single isomer, unassigned; isomer 1) [Example 453, 6-(7-(5,6-dimethyl-1H-indazol-4-yl)-2-((hexahydro-1H-pyrrolizin-7a-yl)methoxy)-5,6,7,8-tetrahydropyrido[3,4-d]pyrimidin-4-yl)-6-azaspiro[3.5]nonan-2-ol (isomer 1)] | 9380 nM | 5760 nM | 604 nM | 523 nM | 616 nM | 464 nM | 826 nM | 1150 nM | 680 nM | 1150 nM | 262 nM |  | 
O=S1(=O)NCC2(CCCN(c3nc(OCC45CCCN4CCC5)nc4c3CCN(c3cc(O)cc(Cl)c3C3CC3)C4)C2)N1 (stereo not drawn) [Example 438, 7-(7-(3-chloro-2-cyclopropyl-5-hydroxyphenyl)-2-((tetrahydro-1H-pyrrolizin-7a(5H)-yl)methoxy)-5,6,7,8-tetrahydropyrido[3,4-d]pyrimidin-4-yl)-2-thia-1,3,7-triazaspiro[4.5]decane 2,2-dioxide] | 5610 nM | 8000 nM | < 2 nM | < 2 nM | < 2 nM | < 2 nM | < 2 nM | < 2 nM | < 2 nM | < 2 nM | < 2 nM | -4% | -7%
O=C1NC(=O)C2(CCCN(c3nc(OCC45CCCN4CCC5)nc4c3CCN(c3cc(O)cc(Cl)c3C3CC3)C4)C2)N1 (stereo not drawn) [Example 439, 7-(7-(3-chloro-2-cyclopropyl-5-hydroxyphenyl)-2-((tetrahydro-1H-pyrrolizin-7a(5H)-yl)methoxy)-5,6,7,8-tetrahydropyrido[3,4-d]pyrimidin-4-yl)-1,3,7-triazaspiro[4.5]decane-2,4-dione] | > 10000 nM | 6240 nM | 2 nM | < 2 nM | < 2 nM | < 2 nM | < 2 nM | < 2 nM | < 2 nM | < 2 nM | < 2 nM |  | 
O=C1NCC2(CCCN(c3nc(OCC45CCCN4CCC5)nc4c3CCN(c3cc(O)cc(Cl)c3C3CC3)C4)C2)N1 (stereo not drawn) [Example 442, 7-(7-(3-chloro-2-cyclopropyl-5-hydroxyphenyl)-2-((tetrahydro-1H-pyrrolizin-7a(5H)-yl)methoxy)-5,6,7,8-tetrahydropyrido[3,4-d]pyrimidin-4-yl)-1,3,7-triazaspiro[4.5]decan-2-one] | > 10000 nM | > 10000 nM | < 2 nM | < 2 nM | 3 nM | < 2 nM | 3 nM | 4 nM | 3 nM | 2 nM | 3 nM | 9% | -4%
O=C1CC2(CCCN(c3nc(OCC45CCCN4CCC5)nc4c3CCN(c3cc(O)cc(Cl)c3C3CC3)C4)C2)N1 (stereo not drawn) [Example 443, 6-(7-(3-chloro-2-cyclopropyl-5-hydroxyphenyl)-2-((tetrahydro-1H-pyrrolizin-7a(5H)-yl)methoxy)-5,6,7,8-tetrahydropyrido[3,4-d]pyrimidin-4-yl)-1,6-diazaspiro[3.5]nonan-2-one] | > 10000 nM | 8580 nM | 6 nM | 6 nM | 4 nM | 3 nM | 8 nM | 8 nM | 4 nM | 5 nM | 3 nM | -16% | -25%
Oc1cc(Cl)c(C2CC2)c(N2CCc3c(nc(OCC45CCCN4CCC5)nc3N3CC4CC(O)C(C4)C3)C2)c1 (stereo not drawn) [Example 444, 3-(7-(3-chloro-2-cyclopropyl-5-hydroxyphenyl)-2-((tetrahydro-1H-pyrrolizin-7a(5H)-yl)methoxy)-5,6,7,8-tetrahydropyrido[3,4-d]pyrimidin-4-yl)-3-azabicyclo[3.2.1]octan-6-ol] | 8870 nM | 5680 nM | 133 nM | 52 nM | 42 nM | 64 nM | 50 nM | 53 nM | 40 nM | 87 nM | 38 nM |  | 
O=C1NC(=O)C2CN(c3nc(OCC45CCCN4CCC5)nc4c3CCN(c3cc(O)cc(Cl)c3C3CC3)C4)CC12 (stereo not drawn) [Example 445, 5-(7-(3-chloro-2-cyclopropyl-5-hydroxyphenyl)-2-((tetrahydro-1H-pyrrolizin-7a(5H)-yl)methoxy)-5,6,7,8-tetrahydropyrido[3,4-d]pyrimidin-4-yl)tetrahydropyrrolo[3,4-c]pyrrole-1,3(2H,3aH)-dione] | > 10000 nM | > 10000 nM | 4 nM | 8 nM | 3 nM | 7 nM | 7 nM | 7 nM | 8 nM | 9 nM | 4 nM | -9% | 13%
Cc1cc2[nH]ncc2c(N2CCc3c(nc(OC[C@@]45CCCN4C[C@H](F)C5)nc3N3CCC[C@]4(C3)NC(=O)NC4=O)C2)c1C [Example 450, (R)-7-(7-(5,6-dimethyl-1H-indazol-4-yl)-2-(((2R,7aS)-2-fluorohexahydro-1H-pyrrolizin-7a-yl)methoxy)-5,6,7,8-tetrahydropyrido[3,4-d]pyrimidin-4-yl)-1,3,7-triazaspiro[4.5m] odecane-2,4-dione] | 3490 nM | 1270 nM | 5 nM | 8 nM | 7 nM | 7 nM | 8 nM | 6 nM | 3 nM | 5 nM | 3 nM |  | 
Cc1cc2[nH]ncc2c(N2CCc3c(nc(OCC45CCCN4CCC5)nc3N3CCCn4nc(C(=O)N(C)C)cc4C3)C2)c1C [Example 451, 5-(7-(5,6-dimethyl-1H-indazol-4-yl)-2-((hexahydro-1H-pyrrolizin-7a-yl)methoxy)-5,6,7,8-tetrahydropyrido[3,4-d]pyrimidin-4-yl)-N,N-dimethyl-5,6,7,8-tetrahydro-4H-pyrazolo[1,5-a][1,4]diazepine-2-carboxamide] | > 10000 nM | > 10000 nM | 11 nM | 387 nM | 243 nM | 209 nM | 777 nM | 1160 nM | 62 nM | 1060 nM | 26 nM |  | 
Cc1cc2[nH]ncc2c(N2CCc3c(nc(OCC45CCCN4CCC5)nc3N3CCCC4(CNS(=O)(=O)N4)C3)C2)c1C (stereo not drawn) [Example 452, 7-(7-(5,6-dimethyl-1H-indazol-4-yl)-2-((hexahydro-1H-pyrrolizin-7a-yl)methoxy)-5,6,7,8-tetrahydropyrido[3,4-d]pyrimidin-4-yl)-2-thia-1,3,7-triazaspiro[4.5]decane 2,2-dioxide] | 3000 nM | > 10000 nM | 4 nM | 9 nM | 8 nM | 8 nM | 7 nM | 8 nM | 9 nM | 7 nM | 6 nM |  | 
Cc1cc2[nH]ncc2c(N2CCc3c(nc(OCC45CCCN4CCC5)nc3N3CCC[C@]4(C3)NC(=O)NC4=O)C2)c1C [Example 455, (R)-7-(7-(5,6-dimethyl-1H-indazol-4-yl)-2-((hexahydro-1H-pyrrolizin-7a-yl)methoxy)-5,6,7,8-tetrahydropyrido[3,4-d]pyrimidin-4-yl)-1,3,7-triazaspiro[4.5]decane-2,4-dione] | > 10000 nM | > 10000 nM | 4 nM | 4 nM | 4 nM | 3 nM | 4 nM | 4 nM | < 2 nM | 3 nM | 2 nM |  | 
CCc1cccc2cccc(N3CCc4c(nc(OCC5(CN(C)C)CC5)nc4N(C)Cc4nnc5c(=O)n(C)ccn45)C3)c12 [Example 700, 3-(((2-((1-((dimethylamino)methyl)cyclopropyl)methoxy)-7-(8-ethylnaphthalen-1-yl)-5,6,7,8-tetrahydropyrido[3,4-d]pyrimidin-4-yl)(methyl)amino)methyl)-7-methyl-[1,2,4]triazolo[4,3-a]pyrazin-8(7H)-one] |  |  | 1380 nM | 474 nM | 399 nM | 251 nM | 522 nM | 374 nM | 687 nM | 577 nM | 452 nM |  | 
